Data taken from patent US20240238314A1, “TREATMENT OF ESSENTIAL TREMOR” (Sage Therapeutics, Inc., priority 2021, published 2024).
“Also recorded” adds a separate entry of the source.

System: individuals with essential tremor
Experiment: Phase 2 study, Compound 1 60 mg once daily for 28 days: safety and tolerability (TEAEs, dose reduction, discontinuation; Safety Set)
Assay type: in vivo, human
Protocol: • Incidence of treatment-emergent adverse events (TEAEs). • Safety and tolerability of Compound 1 as assessed by change from baseline in vital signs, electrocardiograms (ECGs), clinical laboratory parameters, and Columbia-Suicide Severity Rating Scale (C-SSRS). • Physician Withdrawal Checklist (PWC-20).
Participants were randomized to receive Compound 1 60 mg or placebo once daily in the morning on a 1:1 basis. If participants reported a TEAE considered by investigator to be related to Compound 1 and not tolerable, investigator might reduce the dose of Compound 1 from 60 mg in 15 mg decrements (i.e., 60 mg, to 45 mg, to 30 mg), as medically appropriate. If intolerable TEAEs persist at the 30 mg dose, Compound 1 was permanently stopped.
Participants were monitored for safety during the Treatment and Follow-up Periods (through Study Day 45 [±3 days]) including monitoring for AEs/serious AEs (SAEs), routine clinical laboratory assessments, physical examination, vital signs, and ECG, etc.
Safety Set: defined as all participants who received at least one dose of Compound 1. The Safety Set was used to provide descriptive summaries of the safety data.
The safety and tolerability of Compound 1 were evaluated by adverse events, concomitant medication usage, changes from baseline in physical examination, vital signs, clinical laboratory evaluations, and 12-lead ECG. Suicidality was monitored by the C-SSRS. Safety data were listed by subject and by study drug and summarized descriptively. All safety summaries were performed on the Safety Set.
The incidence of adverse events were summarized by system organ class, and preferred term for subjects in Safety Set.

[1] = Safety Set, N = 34, listed as Cmpd 1

COC[C@@]1(O)CC[C@H]2[C@@H](CC[C@@H]3[C@@H]2CC[C@]2(C)[C@@H](C(=O)Cn4nnc(C)n4)CC[C@@H]32)C1 [Compound 1]
Participants with early discontinuation of the study at 60 mg, number: 5 | Down-titration of dose, percent of patients (60 mg down-titrated to 45 mg or 30 mg): 62% | Early treatment discontinuation, reason Physician Decision, number (N = 34): 1 | Early treatment discontinuation, reason Physician Decision, percent (N = 34): 2.9% | Early treatment discontinuation, reason Subject was lost to follow up, number (N = 34): 0 | Early treatment discontinuation, reason Withdrawal by Subject, number (N = 34): 3 | Early treatment discontinuation, reason Withdrawal by Subject, percent (N = 34): 8.8% | TEAE Asthenia, number of participants (Safety Set, N = 34): 1 | TEAE Asthenia, percent of participants (Safety Set, N = 34): (2.9%) | TEAE Balance disorder, number of participants (Safety Set, N = 34): 5 | TEAE Balance disorder, percent of participants (Safety Set, N = 34): 15% | TEAE Coordination abnormal, number of participants (Safety Set, N = 34): 1 | TEAE Coordination abnormal, percent of participants (Safety Set, N = 34): (2.9%) | TEAE Diarrhoea, number of participants (Safety Set, N = 34): 2 | TEAE Diarrhoea, percent of participants (Safety Set, N = 34): (5.9%) | TEAE Diplopia, number of participants (Safety Set, N = 34): 4 | TEAE Diplopia, percent of participants (Safety Set, N = 34): 12% | TEAE Disturbance in attention, number of participants (Safety Set, N = 34): 3 | TEAE Disturbance in attention, percent of participants (Safety Set, N = 34): (8.8%) | TEAE Dizziness, number of participants (Safety Set, N = 34): 13 | TEAE Dizziness, percent of participants (Safety Set, N = 34): 38% | TEAE Dysarthria, number of participants (Safety Set, N = 34): 4 | TEAE Dysarthria, percent of participants (Safety Set, N = 34): 12% | TEAE Fatigue, number of participants (Safety Set, N = 34): 5 | TEAE Fatigue, percent of participants (Safety Set, N = 34): (14.7%) | TEAE Gait disturbance, number of participants (Safety Set, N = 34): 4 | TEAE Gait disturbance, percent of participants (Safety Set, N = 34): 12% | TEAE Headache, number of participants (Safety Set, N = 34): 2 | TEAE Headache, percent of participants (Safety Set, N = 34): (5.9%) | TEAE Insomnia, number of participants (Safety Set, N = 34): 1 | TEAE Insomnia, percent of participants (Safety Set, N = 34): (2.9%) | TEAE Irritability, number of participants (Safety Set, N = 34): 0 | TEAE Lethargy, number of participants (Safety Set, N = 34): 2 | TEAE Lethargy, percent of participants (Safety Set, N = 34): (5.9%) | TEAE Mental status changes, number of participants (Safety Set, N = 34): 2 | TEAE Mental status changes, percent of participants (Safety Set, N = 34): (5.9%) | TEAE Myalgia, number of participants (Safety Set, N = 34): 0 | TEAE Myoclonus, number of participants (Safety Set, N = 34): 3 | TEAE Myoclonus, percent of participants (Safety Set, N = 34): (8.8%) | TEAE Paraesthesia, number of participants (Safety Set, N = 34): 2 | TEAE Paraesthesia, percent of participants (Safety Set, N = 34): (5.9%) | TEAE Somnolence, number of participants (Safety Set, N = 34): 23 | TEAE Speech disorder, number of participants (Safety Set, N = 34): 2 | TEAE Speech disorder, percent of participants (Safety Set, N = 34): (5.9%) | TEAE Urinary tract infection, number of participants (Safety Set, N = 34): 1 | TEAE Urinary tract infection, percent of participants (Safety Set, N = 34): (2.9%) | TEAE Balance disorder, percent of participants [1]: (14.7%) | TEAE Diplopia, percent of participants [1]: (11.8%) | TEAE Dizziness, percent of participants [1]: (38.2%) | TEAE Dysarthria, percent of participants [1]: (11.8%) | TEAE Gait disturbance, percent of participants [1]: (11.8%) | TEAE Somnolence, percent of participants [1]: (67.6%) | Discontinuations noted, of patients receiving Compound 1 (in vivo): 3800 | Participants with early discontinuation of the study at 60 mg, percent (in vivo): 14.7% | Severe adverse events (SAEs) reported by one participant, in words (individual participants of the Compound 1 group): mental status changes; also recorded: dehydration; also recorded: headache; also recorded: transient ischaemic attack | Early treatment discontinuation due to adverse event (TEAEs leading to treatment discontinuation), number (of 34): 9 | Early treatment discontinuation due to adverse event (TEAEs leading to treatment discontinuation), percent (of 34): 26.5% | Participants reporting TEAEs leading to study discontinuation, number (of 34): 4 | Participants reporting TEAEs leading to study discontinuation, percent (of 34): 11.8% | Participants reporting TEAEs resulting in treatment dose reduction, number (of 34): 21 | Participants reporting TEAEs resulting in treatment dose reduction, percent (of 34): 61.8% | Participants reporting severe TEAEs, number (of 34): 11 | Participants reporting severe TEAEs, percent (of 34): 32.4% | Participants reporting treatment-emergent adverse events (TEAEs), number (of 34): 33 | Participants reporting treatment-emergent adverse events (TEAEs), percent (of 34): 97.1% | Participants who completed the study at 60 mg dose, number (of 34): 8 | Participants who completed the study at 60 mg dose, percent (of 34): 23.5% | Participants who had dose reduced to 30 mg from 60 mg directly, number (of 34): 2 | Participants who had dose reduced to 30 mg from 60 mg directly, percent (of 34): 5.9% | Participants who had dose reduced to 45 mg, number (of 34): 19 | Participants who had dose reduced to 45 mg, percent (of 34): 55.9%
